Laboratory results published in patent US20240287036A1, “COMPOUNDS USEFUL IN THE TREATMENT OR PREVENTION OF A PRMT5-MEDIATED DISORDER” (ARGONAUT THERAPEUTICS LIMITED, priority 2021, published 2024).

Assays:
human PRMT5/MEP50 = biological target: T1, human PRMT5/MEP50 (Homo sapiens, UniProt O14744); experiment: PRMT5 chemiluminescent assay; assay type: biochemical; conditions: human PRMT5/MEP50 expressed in HEK293 cells, biotinylated histone peptides, 60 min reaction; read-out: PRMT5 pIC50 (converted)
T1 construct: host or cells: HEK293 cells
Description: A PRMT5 chemiluminescent assay was used to measure the IC50 activity of PRMT5 of the compounds of CEx and Examples 1 to 8 above. Biotinylated histone peptides were synthesized and attached to 384-well plates. Compound serial dilutions were performed and added to the assay plate. Histone H4 monomethyl R^3 antibody was obtained from Abcam. A master mix for each well was prepared and human PRMT5/MEP50 (expressed in HEK293 cells) diluted in assay buffer to a concentration of 5 ng/μL. The reaction was incubated and slowly rotated for 60 minutes at the point of PRMT5/MEP50 addition. The supernatant from the wells was removed and blocking buffer was added to each well and rotated for 10 minutes. The primary antibody was diluted and added to every well for 60 minutes, before it was removed and the wells washed. The horse radish peroxidase (HRP)-coupled secondary antibody was diluted and added to each well with an incubation time of 30 minutes. The HRP chemiluminescent substrate was added to every well. The plate was read on a Flourstar Omega BMG Labtech instrument (Ortenberg, Germany) and the analysis of IC50 was performed using the Flourstar Omega BMG Labtech software.

[1] = Hepatocyte stability assay (Human Hep Clint); assay type: in vitro ADME; conditions: cryopreserved pooled human hepatocytes, 0.5 × 10^6 cells/mL, 1 μM test compound, up to 90 min
Description: The activity of the compounds was tested using several industry accepted methods. These included methods to measure the human hepatocyte clearance values (Human Hep Clint) and a PRMT5 assay. The methods that were used were conventional.
Cell viability was tested by trypan blue exclusion after thawing.
Thawing Medium: Williams' Medium E containing 5% fetal bovine serum and 30% Percoll solution and other supplements.
Incubation Medium: Williams' Medium E (no phenol red) containing 2 mM L-Glutamine and 25 mM HEPES.
Stop Solution: Acetonitrile containing 200 ng/ml tolbutamide and labetalol as internal standards.
The following steps were performed. • 1. 10 mM test compounds were provided by Compound Sample Group. • 2. 30 mM positive control stock solutions: Dissolved accurate amount of positive control compounds in dimethyl sulfoxide (DMSO). • 3. 1000× Stock Solution: Diluted 10 mM test compounds and 30 mM positive control compounds to 1 mM and 3 mM with DMSO in 96-well plates. • 4. 100× Dosing Solution: Diluted 1 mM test compounds and 3 mM positive control compounds to 100 µM and 300 µM dosing solutions with ACN. • 5. Preparation of 0.5×10^6/mL cells suspension: cryopreserved cells were thawed, isolated and suspended in Incubation Medium, then diluted with pre-warmed Incubation Medium to 0.5×10^6 cells/mL. • 6. Add 198 μL of pre-warmed cell suspensions in 96-well plates. • 7. Preparation of Quenching Plate: Transfer 125 μL of stop solution (acetonitrile containing 200 ng/ml tolbutamide and 200 ng/ml labetalol as internal standards) in a set of pre-labelled 96-well plates. • 8. Spike 2 μL dosing solution to each well of 96-well plates in duplicates. • 9. For T0 Samples, mix to achieve a homogenous suspension for about 1 min, then immediately transfer 25 μL of each sample into well containing 125 μL of ice-cold stop solution followed by mixing. • 10. Incubate all plates at 37° ° C. in a 95% humidified incubator at 5% CO2 to start the reactions with constant shaking at about 600 rpm. • 11. At 15, 30, 60 and 90 min, mix samples and then transfer 25 μL of each sample at each time point to well containing 125 μL of ice-cold stop solution followed by mixing. • 12. Medium Control (MC) sample plates (labelled as T0-MC and T90-MC) are prepared at TO and T90 by adding the same components to each well except cell suspensions. • 13. At each corresponding time point, stop the reactions by removing the plates from incubator and mixing with 125 μL of ice-cold stop solution. • 14. Vortex the plates immediately on a plate shaker at 500 rpm for 10 minutes. Then, centrifuge all sample plates at 3220× g for 20 min at 4° C. • 15. After centrifugation, 80 μL/well of supernatant in the sample plates are transferred to another set of pre-labelled 96-well plates which containing 240 μL of ultra pure water according to the plate map. • 16. Analytical plates are sealed and store at 4° C. until LC-MS/MS analysis.
The remaining percents of test articles after incubation were calculated by the follow equations: […]
Use equation of first order kinetics to calculate t1/2 and CLint. Equation of first order kinetics:
[formula] [formula] CLint (hep)=k/million cells per mL
CLint (liver)=CLint (hep)·liver weight (g/kg body weight)*hepatocellularity

T1 sequence (O14744 whole entry): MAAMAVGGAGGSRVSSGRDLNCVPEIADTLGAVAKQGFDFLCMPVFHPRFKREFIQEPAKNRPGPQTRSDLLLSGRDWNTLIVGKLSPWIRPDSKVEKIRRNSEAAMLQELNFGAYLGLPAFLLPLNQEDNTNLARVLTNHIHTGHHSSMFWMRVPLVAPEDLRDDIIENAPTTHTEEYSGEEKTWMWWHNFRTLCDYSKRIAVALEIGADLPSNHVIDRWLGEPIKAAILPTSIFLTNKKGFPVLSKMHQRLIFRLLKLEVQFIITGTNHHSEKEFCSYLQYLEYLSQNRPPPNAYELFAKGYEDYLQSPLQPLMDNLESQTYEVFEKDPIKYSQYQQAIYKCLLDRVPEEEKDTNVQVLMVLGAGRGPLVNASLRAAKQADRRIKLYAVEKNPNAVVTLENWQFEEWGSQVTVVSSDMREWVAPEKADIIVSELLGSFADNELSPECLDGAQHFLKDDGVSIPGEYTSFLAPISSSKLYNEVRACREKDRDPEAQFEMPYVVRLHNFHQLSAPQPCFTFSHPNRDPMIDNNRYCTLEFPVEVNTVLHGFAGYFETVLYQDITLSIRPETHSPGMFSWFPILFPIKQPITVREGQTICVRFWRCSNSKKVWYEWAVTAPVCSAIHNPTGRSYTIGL
T1 sequence (Q9BQA1 whole entry partner): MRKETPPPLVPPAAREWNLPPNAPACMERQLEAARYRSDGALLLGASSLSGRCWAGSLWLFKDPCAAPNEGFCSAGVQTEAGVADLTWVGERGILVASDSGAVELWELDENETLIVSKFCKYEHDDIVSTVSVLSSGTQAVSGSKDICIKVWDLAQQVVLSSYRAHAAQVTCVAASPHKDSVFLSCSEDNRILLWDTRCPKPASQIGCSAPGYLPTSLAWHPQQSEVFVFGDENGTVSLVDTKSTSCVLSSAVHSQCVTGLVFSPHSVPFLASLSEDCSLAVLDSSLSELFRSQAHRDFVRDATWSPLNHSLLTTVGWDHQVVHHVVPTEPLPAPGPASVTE

Work on O=C(NC[C@H](O)CN1CCc2ccccc2C1)N1CCC[C@@H](c2ccccc2)C1 [CEx, reference compound] yielded an IC50 (human PRMT5/MEP50) of 12.6 nM and a hepatocyte CLint at 1 μM [1] of 54.1 µL/min/1e6 cells.
O=C(NC[C@H](O)CN1CCc2ccccc2C1)N1CCC[C@@H](N2CCCC2=O)C1 [Ex. 1, (R)—N—((S)-3-(3,4-dihydroisoquinolin-2(1H)-yl)-2-hydroxypropyl)-3-(2-oxopyrrolidin-1-yl)piperidine-1-carboxamide] showed an IC50 (human PRMT5/MEP50) of 50.1 nM and a hepatocyte CLint at 1 μM [1] of 1.7 µL/min/1e6 cells.
For O=C(NC[C@H](O)CN1CCc2ccccc2C1)N1CCC[C@@H](N2CCCCC2=O)C1 [Ex. 2, (R)—N—((S)-3-(3,4-dihydroisoquinolin-2(1H)-yl)-2-hydroxypropyl)-2-oxo-[1,3′-bipiperidine]-1′-carboxamide], the IC50 (human PRMT5/MEP50) was 15.8 nM and the hepatocyte CLint at 1 μM [1] was under 3 µL/min/1e6 cells.
For CC1CCC(=O)N([C@@H]2CCCN(C(=O)NC[C@H](O)CN3CCc4ccccc4C3)C2)C1 (stereo partly drawn) [Ex. 3, (3′R)—N—((S)-3-(3,4-dihydroisoquinolin-2(1H)-yl)-2-hydroxypropyl)-5-methyl-2-oxo-[1,3′-bipiperidine]-1′-carboxamide], the IC50 (human PRMT5/MEP50) was 31.6 nM and the hepatocyte CLint at 1 μM [1] was 2.5 µL/min/1e6 cells.
In the case of [2H]C1([2H])c2ccccc2CCN1C[C@@H](O)CNC(=O)N1CCC[C@@H](N2CCCCC2=O)C1 [Ex. 4, (R)—N—((S)-3-(3,4-dihydroisoquinolin-2(1H)-yl-1,1-d2)-2-hydroxypropyl)-2-oxo-[1,3′-bipiperidine]-1′-carboxamide], the IC50 (human PRMT5/MEP50) was 31.6 nM and the hepatocyte CLint at 1 μM [1] was 2.5 µL/min/1e6 cells.
Molecule [2H]C1([2H])CN(C[C@@H](O)CNC(=O)N2CCC[C@@H](N3CCCCC3=O)C2)C([2H])([2H])c2ccccc21 [Ex. 5, (R)—N—((S)-3-(3,4-dihydroisoquinolin-2(1H)-yl-1,1,4,4-d4)-2-hydroxypropyl)-2-oxo-[1,3′-bipiperidine]-1′-carboxamide] has an IC50 (human PRMT5/MEP50) of 20 nM.
CC1CCCN([C@@H]2CCCN(C(=O)NC[C@H](O)CN3CCc4ccccc4C3)C2)C1=O (stereo partly drawn) [Ex. 6, (3′R)—N—((S)-3-(3,4-dihydroisoquinolin-2(1H)-yl)-2-hydroxypropyl)-3-methyl-2-oxo-[1,3′-bipiperidine]-1′-carboxamide] showed an IC50 (human PRMT5/MEP50) of 12.6 nM and a hepatocyte CLint at 1 μM [1] of under 6 µL/min/1e6 cells.
In the case of Cc1ccnn([C@@H]2CCCN(C(=O)NC[C@H](O)CN3CCc4ccccc4C3)C2)c1=O [Ex. 7, (R)—N—((S)-3-(3,4-dihydroisoquinolin-2(1H)-yl)-2-hydroxypropyl)-3-(5-methyl-6-oxopyridazin-1(6H)-yl)piperidine-1-carboxamide], the IC50 (human PRMT5/MEP50) was 7.94 nM and the hepatocyte CLint at 1 μM [1] was 10.8 µL/min/1e6 cells.
In the case of CN1CCCN([C@@H]2CCCN(C(=O)NC[C@H](O)CN3CCc4ccccc4C3)C2)C1=O [Ex. 8, (R)—N—((S)-3-(3,4-dihydroisoquinolin-2(1H)-yl)-2-hydroxypropyl)-3-(3-methyl-2-oxotetrahydropyrimidin-1(2H)-yl)piperidine-1-carboxamide], the IC50 (human PRMT5/MEP50) was 12.6 nM and the hepatocyte CLint at 1 μM [1] was under 6.4 µL/min/1e6 cells.
